# According to patent publication US20130274174A1, “THERAPEUTIC COMBINATION OF DAPTOMYCIN AND PROTEIN SYNTHESIS INHIBITOR ANTIBIOTIC, AND METHODS OF USE” (priority 2011, published 2013):
# Like-named read-outs stand apart in the source and are kept apart here.
# What was measured:
# [1] = Solubility of test articles in stock solutions and at final test concentrations; format: physicochemical; details: stock solution in DMSO:water (1:1)
# Method: Test articles of stock solutions of daptomycin (Cubist, lot MCB2007) and TR-700 were prepared at 40 times the final target concentration in DMSO:water (1:1). DMSO was added first, the solutions were allowed to stand for 60 minutes and then the water was added. […] The final DMSO concentration was 2.5%. The final drug concentrations in the FIC assay plates were set to bracket the MIC value of each test article for each test organism, unless the strain was totally resistant to the test article.
# S. aureus ATCC 33591 = test: microbe, parasite or virus in culture; format: cell-based, Staphylococcus aureus; details: for MIC: Staphylococcus aureus
# Method in brief: (§1)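 MW2 passaged on cation-adjusted Mueller-Hinton II agar with ¼ MIC of TR-700, TR-705, LZD, TIA, CLI, TET, VAN or TMP/SMX plus a linear DAP gradient; ATCC 33591 with ¼ MIC TR-700, TMP/SMX or VAN; DAP-only controls.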
# S. aureus MW2 (NRS123) = test: microbe, parasite or virus in culture; format: cell-based, Staphylococcus aureus; details: for MIC: Staphylococcus aureus
# Method in brief: as §1
smiles,measurement,setting,value
"Cn1nnc(-c2ccc(-c3ccc(N4C[C@H](CO)OC4=O)cc3F)cn2)n1 [TR-700, Tedizolid]",concentration above which a precipitate formed,[1],above 1280 μg/ml
same,DAP MIC lower than DAP-only control,"S. aureus ATCC 33591; ATCC 33591, co-selecting agent at ¼ MIC",4 fold
same,MIC,"S. aureus ATCC 33591; ATCC33591, passage 0, ATCC 33591 WT",0.5 µg/mL
same,MIC,"S. aureus ATCC 33591; ATCC33591, passage 5, selection group DAP",0.125 µg/mL
same,MIC,"S. aureus ATCC 33591; ATCC33591, passage 5, selection group DAP + TMP/SMX",0.5 µg/mL
same,MIC,"S. aureus ATCC 33591; ATCC33591, passage 5, selection group DAP + TR-700",0.5 µg/mL
same,MIC,"S. aureus ATCC 33591; ATCC33591, passage 5, selection group DAP + VAN",0.5 µg/mL
same,MIC,"S. aureus ATCC 33591; ATCC33591, passage 10, selection group DAP",0.125 µg/mL
same,MIC,"S. aureus ATCC 33591; ATCC33591, passage 10, selection group DAP + TMP/SMX",0.25 µg/mL
same,MIC,"S. aureus ATCC 33591; ATCC33591, passage 10, selection group DAP + TR-700",0.5 µg/mL
same,MIC,"S. aureus ATCC 33591; ATCC33591, passage 10, selection group DAP + VAN",0.5 µg/mL
same,MIC,"S. aureus ATCC 33591; ATCC33591, passage 15, selection group DAP",0.125 µg/mL
same,MIC,"S. aureus ATCC 33591; ATCC33591, passage 15, selection group DAP + TMP/SMX",0.25 µg/mL
same,MIC,"S. aureus ATCC 33591; ATCC33591, passage 15, selection group DAP + TR-700",0.5 µg/mL
same,MIC,"S. aureus ATCC 33591; ATCC33591, passage 15, selection group DAP + VAN",0.25 µg/mL
same,MIC,"S. aureus ATCC 33591; ATCC33591, passage 20, selection group DAP",0.125 µg/mL
same,MIC,"S. aureus ATCC 33591; ATCC33591, passage 20, selection group DAP + TMP/SMX",0.25 µg/mL
same,MIC,"S. aureus ATCC 33591; ATCC33591, passage 20, selection group DAP + TR-700",0.5 µg/mL
same,MIC,"S. aureus ATCC 33591; ATCC33591, passage 20, selection group DAP + VAN",0.5 µg/mL
same,MIC,"S. aureus ATCC 33591; ATCC33591, passage 25, selection group DAP",0.125 µg/mL
same,MIC,"S. aureus ATCC 33591; ATCC33591, passage 25, selection group DAP + TMP/SMX",0.25 µg/mL
same,MIC,"S. aureus ATCC 33591; ATCC33591, passage 25, selection group DAP + TR-700",0.25 µg/mL
same,MIC,"S. aureus ATCC 33591; ATCC33591, passage 25, selection group DAP + VAN",0.25 µg/mL
same,MIC,"S. aureus ATCC 33591; ATCC33591, passage 30, selection group DAP",0.125 µg/mL
same,MIC,"S. aureus ATCC 33591; ATCC33591, passage 30, selection group DAP + TMP/SMX",0.25 µg/mL
same,MIC,"S. aureus ATCC 33591; ATCC33591, passage 30, selection group DAP + TR-700",0.5 µg/mL
same,MIC,"S. aureus ATCC 33591; ATCC33591, passage 30, selection group DAP + VAN",0.5 µg/mL
same,MIC,"S. aureus ATCC 33591; ATCC33591, read-out: DAP MIC of the co-selection passage group, ATCC 33591, through P15, co-selecting agent at ¼ MIC",≤ 1 µg/mL
same,DAP MIC lower than DAP-only control,"S. aureus MW2 (NRS123); MW2, after 30 passages, co-selecting agent at ¼ MIC, total population",16 fold
same,MIC,"S. aureus MW2 (NRS123); NRS123, passage 0, NRS123 WT",0.5 µg/mL
same,MIC,"S. aureus MW2 (NRS123); NRS123, passage 5, selection group DAP",0.5 µg/mL
same,MIC,"S. aureus MW2 (NRS123); NRS123, passage 5, selection group DAP + CLI",0.5 µg/mL
same,MIC,"S. aureus MW2 (NRS123); NRS123, passage 5, selection group DAP + LZD",0.5 µg/mL
same,MIC,"S. aureus MW2 (NRS123); NRS123, passage 5, selection group DAP + TET",0.5 µg/mL
same,MIC,"S. aureus MW2 (NRS123); NRS123, passage 5, selection group DAP + TIA",0.5 µg/mL
same,MIC,"S. aureus MW2 (NRS123); NRS123, passage 5, selection group DAP + TMP/SMX",0.25 µg/mL
same,MIC,"S. aureus MW2 (NRS123); NRS123, passage 5, selection group DAP + TR-700",0.5 µg/mL
same,MIC,"S. aureus MW2 (NRS123); NRS123, passage 5, selection group DAP + TR-705",0.5 µg/mL
same,MIC,"S. aureus MW2 (NRS123); NRS123, passage 5, selection group DAP + VAN",0.25 µg/mL
same,MIC,"S. aureus MW2 (NRS123); NRS123, passage 10, selection group DAP",0.5 µg/mL
same,MIC,"S. aureus MW2 (NRS123); NRS123, passage 10, selection group DAP + CLI",0.5 µg/mL
same,MIC,"S. aureus MW2 (NRS123); NRS123, passage 10, selection group DAP + LZD",0.5 µg/mL
same,MIC,"S. aureus MW2 (NRS123); NRS123, passage 10, selection group DAP + TET",0.5 µg/mL
same,MIC,"S. aureus MW2 (NRS123); NRS123, passage 10, selection group DAP + TIA",0.5 µg/mL
same,MIC,"S. aureus MW2 (NRS123); NRS123, passage 10, selection group DAP + TMP/SMX",0.5 µg/mL
same,MIC,"S. aureus MW2 (NRS123); NRS123, passage 10, selection group DAP + TR-700",0.5 µg/mL
same,MIC,"S. aureus MW2 (NRS123); NRS123, passage 10, selection group DAP + TR-705",0.5 µg/mL
same,MIC,"S. aureus MW2 (NRS123); NRS123, passage 10, selection group DAP + VAN",0.25 µg/mL
same,MIC,"S. aureus MW2 (NRS123); NRS123, passage 15, selection group DAP",0.25 µg/mL
same,MIC,"S. aureus MW2 (NRS123); NRS123, passage 15, selection group DAP + CLI",0.25 µg/mL
same,MIC,"S. aureus MW2 (NRS123); NRS123, passage 15, selection group DAP + LZD",0.5 µg/mL
same,MIC,"S. aureus MW2 (NRS123); NRS123, passage 15, selection group DAP + TET",0.25 µg/mL
same,MIC,"S. aureus MW2 (NRS123); NRS123, passage 15, selection group DAP + TIA",0.5 µg/mL
same,MIC,"S. aureus MW2 (NRS123); NRS123, passage 15, selection group DAP + TMP/SMX",0.5 µg/mL
same,MIC,"S. aureus MW2 (NRS123); NRS123, passage 15, selection group DAP + TR-700",0.5 µg/mL
same,MIC,"S. aureus MW2 (NRS123); NRS123, passage 15, selection group DAP + TR-705",0.5 µg/mL
same,MIC,"S. aureus MW2 (NRS123); NRS123, passage 15, selection group DAP + VAN",0.5 µg/mL
same,MIC,"S. aureus MW2 (NRS123); NRS123, passage 20, selection group DAP",0.5 µg/mL
same,MIC,"S. aureus MW2 (NRS123); NRS123, passage 20, selection group DAP + CLI",0.25 µg/mL
same,MIC,"S. aureus MW2 (NRS123); NRS123, passage 20, selection group DAP + LZD",0.5 µg/mL
same,MIC,"S. aureus MW2 (NRS123); NRS123, passage 20, selection group DAP + TET",0.25 µg/mL
same,MIC,"S. aureus MW2 (NRS123); NRS123, passage 20, selection group DAP + TIA",0.5 µg/mL
same,MIC,"S. aureus MW2 (NRS123); NRS123, passage 20, selection group DAP + TMP/SMX",0.5 µg/mL
same,MIC,"S. aureus MW2 (NRS123); NRS123, passage 20, selection group DAP + TR-700",0.5 µg/mL
same,MIC,"S. aureus MW2 (NRS123); NRS123, passage 20, selection group DAP + TR-705",0.5 µg/mL
same,MIC,"S. aureus MW2 (NRS123); NRS123, passage 20, selection group DAP + VAN",0.5 µg/mL
same,MIC,"S. aureus MW2 (NRS123); NRS123, passage 25, selection group DAP",0.25 µg/mL
same,MIC,"S. aureus MW2 (NRS123); NRS123, passage 25, selection group DAP + CLI",0.25 µg/mL
same,MIC,"S. aureus MW2 (NRS123); NRS123, passage 25, selection group DAP + LZD",0.25 µg/mL
same,MIC,"S. aureus MW2 (NRS123); NRS123, passage 25, selection group DAP + TET",0.25 µg/mL
same,MIC,"S. aureus MW2 (NRS123); NRS123, passage 25, selection group DAP + TIA",0.5 µg/mL
same,MIC,"S. aureus MW2 (NRS123); NRS123, passage 25, selection group DAP + TMP/SMX",0.25 µg/mL
same,MIC,"S. aureus MW2 (NRS123); NRS123, passage 25, selection group DAP + TR-700",0.5 µg/mL
same,MIC,"S. aureus MW2 (NRS123); NRS123, passage 25, selection group DAP + TR-705",0.5 µg/mL
same,MIC,"S. aureus MW2 (NRS123); NRS123, passage 25, selection group DAP + VAN",0.25 µg/mL
same,MIC,"S. aureus MW2 (NRS123); NRS123, passage 30, selection group DAP",0.25 µg/mL
same,MIC,"S. aureus MW2 (NRS123); NRS123, passage 30, selection group DAP + CLI",0.25 µg/mL
same,MIC,"S. aureus MW2 (NRS123); NRS123, passage 30, selection group DAP + LZD",0.5 µg/mL
same,MIC,"S. aureus MW2 (NRS123); NRS123, passage 30, selection group DAP + TET",0.25 µg/mL
same,MIC,"S. aureus MW2 (NRS123); NRS123, passage 30, selection group DAP + TIA",0.5 µg/mL
same,MIC,"S. aureus MW2 (NRS123); NRS123, passage 30, selection group DAP + TMP/SMX",0.5 µg/mL
same,MIC,"S. aureus MW2 (NRS123); NRS123, passage 30, selection group DAP + TR-700",0.5 µg/mL
same,MIC,"S. aureus MW2 (NRS123); NRS123, passage 30, selection group DAP + TR-705",0.5 µg/mL
same,MIC,"S. aureus MW2 (NRS123); NRS123, passage 30, selection group DAP + VAN",0.25 µg/mL
same,MIC,"S. aureus MW2 (NRS123); NRS123, read-out: DAP MIC by the end of the experiment (selection of DAP^ns strains), MW2, passaged with DAP alone or with co-selecting agent at ¼ MIC, CLSI breakpoint",> 1 µg/mL
same,susceptibility to the co-selecting agent in its co-selection group,S. aureus MW2 (NRS123); over the course of 30 passages,did not demonstrate reduced susceptibility to TR-700
